Test results reported in ChEMBL document CHEMBL1250451, “Mechanistic insights into a Ca2+-dependent family of alpha-mannosidases in a human gut symbiont” (Nat Chem Biol, 2010).
Blank lines part the entries; values can stand above or below the compound they belong to. Active and inactive are the calls of the source. The calls are words filed in the database; no cut-off is given here.

Columns and labels:
Type in all cases: protein assay
[1] = target: T1, Alpha-1,2-mannosidase (BT_3527) (Bacteroides thetaiotaomicron) (UniProt Q8A1Y1); assay: Activity of Bacteroides thetaiotaomicron GH92 alpha-mannosidase GH92 alpha-mannosidase 3527 assessed as mannose release at 1 mM after 16 hrs by HPLC relative to untreated control after 16 hrs by HPLC
T1 sequence (whole entry): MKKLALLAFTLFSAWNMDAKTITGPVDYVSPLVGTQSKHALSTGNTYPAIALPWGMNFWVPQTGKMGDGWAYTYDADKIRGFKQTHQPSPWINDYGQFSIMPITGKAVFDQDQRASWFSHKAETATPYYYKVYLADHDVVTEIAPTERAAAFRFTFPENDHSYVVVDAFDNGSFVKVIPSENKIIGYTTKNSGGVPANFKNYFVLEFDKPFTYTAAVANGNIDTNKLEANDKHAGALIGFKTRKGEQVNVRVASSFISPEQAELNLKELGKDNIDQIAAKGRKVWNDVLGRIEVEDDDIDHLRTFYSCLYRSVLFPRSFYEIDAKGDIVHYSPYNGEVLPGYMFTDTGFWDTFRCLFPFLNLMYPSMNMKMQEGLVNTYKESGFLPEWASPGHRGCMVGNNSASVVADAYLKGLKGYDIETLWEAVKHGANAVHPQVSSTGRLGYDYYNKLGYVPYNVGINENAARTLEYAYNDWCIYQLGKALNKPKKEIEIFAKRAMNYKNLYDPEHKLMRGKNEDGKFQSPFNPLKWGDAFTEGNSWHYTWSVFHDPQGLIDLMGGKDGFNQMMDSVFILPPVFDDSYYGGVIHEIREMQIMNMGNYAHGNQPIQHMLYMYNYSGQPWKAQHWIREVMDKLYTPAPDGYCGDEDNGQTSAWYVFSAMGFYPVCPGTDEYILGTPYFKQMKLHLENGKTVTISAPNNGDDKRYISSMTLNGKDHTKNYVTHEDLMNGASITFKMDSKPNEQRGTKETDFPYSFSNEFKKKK

[2] = target: T2, Alpha-1,2-mannosidase (BT_2199) (Bacteroides thetaiotaomicron) (UniProt Q8A5N9); assay: Activity of Bacteroides thetaiotaomicron GH92 alpha-mannosidase 2199 assessed as recovery of enzyme activity at 1 mM in presence of 7 mM Co(2+) ions and in presence of 5 mM EGTA in 100 mM pH 7 MOPS buffer relative to enzyme activity in presence of calcium
T2 sequence (whole entry): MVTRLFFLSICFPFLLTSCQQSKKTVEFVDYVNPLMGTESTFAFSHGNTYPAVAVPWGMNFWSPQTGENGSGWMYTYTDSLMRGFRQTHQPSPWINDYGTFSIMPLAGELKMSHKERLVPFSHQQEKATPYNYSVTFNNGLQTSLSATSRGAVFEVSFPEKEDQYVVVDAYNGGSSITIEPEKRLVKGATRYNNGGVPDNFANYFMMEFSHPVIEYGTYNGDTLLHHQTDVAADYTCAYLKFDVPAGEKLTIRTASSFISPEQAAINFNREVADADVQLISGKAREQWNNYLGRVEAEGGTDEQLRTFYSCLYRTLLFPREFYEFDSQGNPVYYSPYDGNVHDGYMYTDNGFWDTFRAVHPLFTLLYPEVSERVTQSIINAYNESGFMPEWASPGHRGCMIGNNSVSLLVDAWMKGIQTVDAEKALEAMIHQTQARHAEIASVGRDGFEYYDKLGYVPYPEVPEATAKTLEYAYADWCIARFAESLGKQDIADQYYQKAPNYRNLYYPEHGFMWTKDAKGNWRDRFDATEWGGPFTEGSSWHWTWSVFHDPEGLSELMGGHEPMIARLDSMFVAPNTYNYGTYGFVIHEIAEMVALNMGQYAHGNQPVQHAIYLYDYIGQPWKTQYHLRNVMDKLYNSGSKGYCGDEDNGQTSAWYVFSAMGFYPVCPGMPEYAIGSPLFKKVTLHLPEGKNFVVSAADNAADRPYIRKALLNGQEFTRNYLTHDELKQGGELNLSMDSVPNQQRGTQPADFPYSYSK

[3] = target: T2, Alpha-1,2-mannosidase (BT_2199) (Bacteroides thetaiotaomicron); assay: Activity of Bacteroides thetaiotaomicron GH92 alpha-mannosidase 2199 assessed as recovery of enzyme activity at 1 mM in presence of 7 mM Mg(2+) ions and in presence of 5 mM EDTA in 100 mM pH 7 MOPS buffer relative to enzyme activity in presence of calcium
[4] = target: T3, Alpha-1,2-mannosidase (BT_3990) (Bacteroides thetaiotaomicron) (UniProt Q8A0N1); assay: Activity of Bacteroides thetaiotaomicron GH92 alpha-mannosidase 3990 assessed as recovery of enzyme activity at 1 mM in presence of 7 mM Ca(2+) ions and in presence of 5 mM EDTA in 100 mM pH 7 MOPS buffer relative to enzyme activity in presence of calcium
T3 sequence (whole entry): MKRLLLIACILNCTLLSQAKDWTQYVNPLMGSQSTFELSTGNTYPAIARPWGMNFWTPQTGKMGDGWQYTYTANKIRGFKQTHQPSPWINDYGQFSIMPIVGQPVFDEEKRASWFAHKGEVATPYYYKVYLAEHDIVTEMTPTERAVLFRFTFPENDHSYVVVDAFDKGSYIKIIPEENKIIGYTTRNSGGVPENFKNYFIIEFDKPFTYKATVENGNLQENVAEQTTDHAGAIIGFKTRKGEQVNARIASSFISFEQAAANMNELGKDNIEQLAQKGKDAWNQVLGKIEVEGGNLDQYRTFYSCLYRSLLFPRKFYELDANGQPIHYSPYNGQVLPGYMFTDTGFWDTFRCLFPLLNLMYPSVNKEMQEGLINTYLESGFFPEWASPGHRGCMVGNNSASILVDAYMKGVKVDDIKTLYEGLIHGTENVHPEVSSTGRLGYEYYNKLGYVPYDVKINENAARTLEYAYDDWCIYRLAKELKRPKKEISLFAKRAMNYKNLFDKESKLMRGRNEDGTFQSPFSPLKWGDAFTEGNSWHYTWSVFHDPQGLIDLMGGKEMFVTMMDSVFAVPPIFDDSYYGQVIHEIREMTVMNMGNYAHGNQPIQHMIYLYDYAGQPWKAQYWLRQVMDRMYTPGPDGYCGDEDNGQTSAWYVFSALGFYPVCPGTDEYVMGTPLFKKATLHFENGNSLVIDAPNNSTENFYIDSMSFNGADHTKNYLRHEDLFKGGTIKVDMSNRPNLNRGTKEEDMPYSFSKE

[5] = target: T2, Alpha-1,2-mannosidase (BT_2199) (Bacteroides thetaiotaomicron); assay: Activity of Bacteroides thetaiotaomicron GH92 alpha-mannosidase 2199 assessed as recovery of enzyme activity at 1 mM in presence of 7 mM Zn(2+) ions and in presence of 5 mM EGTA in 100 mM pH 7 MOPS buffer relative to enzyme activity in presence of calcium
[6] = target: T2, Alpha-1,2-mannosidase (BT_2199) (Bacteroides thetaiotaomicron); assay: Activity of Bacteroides thetaiotaomicron GH92 alpha-mannosidase 2199 assessed as recovery of enzyme activity at 1 mM in presence of 7 mM Sr(2+) ions and in presence of 5 mM EDTA in 100 mM pH 7 MOPS buffer relative to enzyme activity in presence of calcium

- Activity [1]: inactive
SMILES: OC[C@H]1O[C@H](O[C@H]2[C@@H](O)[C@H](O)[C@@H](CO)O[C@@H]2O)[C@@H](O)[C@@H](O)[C@@H]1O

- Activity [2]: 12%
- Activity [3]: 0%
- Activity [4]: 100%
- Activity [5]: 0%
- Activity [6]: 31%
SMILES: O=[N+]([O-])c1ccc(O[C@H]2O[C@H](CO)[C@@H](O)[C@H](O)[C@@H]2O)cc1

The remaining lines, values behind:

SMILES: OC[C@H]1O[C@H](OC[C@H]2O[C@H](O)[C@@H](O)[C@@H](O)[C@@H]2O)[C@@H](O)[C@@H](O)[C@@H]1O
- Activity [1]: inactive

SMILES: OC[C@H]1O[C@H](O[C@H]2[C@H](O)[C@H](O)[C@@H](O)O[C@@H]2CO)[C@@H](O)[C@@H](O)[C@@H]1O
- Activity [1]: inactive

SMILES: OC[C@H]1O[C@H](O[C@@H]2[C@H](O)[C@@H](O)O[C@H](CO)[C@H]2O)[C@@H](O)[C@@H](O)[C@@H]1O
- Activity [1]: inactive
